Measured values as given in paper PMC8160210, “Single tryptophan Y160W mutant of homooligomeric E. coli purine nucleoside phosphorylase implies that dimers forming the hexamer are functionally not equivalent” (Scientific Reports, 2021).
Where two headings read alike, the source gives them in different places.

Biological target: T1, WT E. coli PNP (Escherichia coli, UniProt P0ABP8)
T1 construct: made in house
T1 sequence (P0ABP8 2-239 limits assumed): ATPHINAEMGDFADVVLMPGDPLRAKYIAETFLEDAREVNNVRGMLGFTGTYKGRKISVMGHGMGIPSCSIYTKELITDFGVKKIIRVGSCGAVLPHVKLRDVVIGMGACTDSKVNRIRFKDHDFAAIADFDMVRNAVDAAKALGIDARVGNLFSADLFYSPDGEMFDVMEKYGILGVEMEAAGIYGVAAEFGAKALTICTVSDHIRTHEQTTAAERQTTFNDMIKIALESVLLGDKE
Assay: Fluorescence titrations with phosphate
Settings: three-binding-site model, 25 °C
Procedure: All experiments were carried out on the Perkin-Elmer LS55 spectrofluorimeter. Fluorescence spectra were registered using in each case (protein or protein–ligand complex) several excitation wavelengths. Differential spectra were calculated by subtracting spectrum of a protein from the spectrum of the appropriate complex. The negative differential fluorescence intensity means that a decrease of fluorescence upon complex formation is observed. Titrations of the enzyme with phosphate were registered using several excitation and observation wavelengths combinations. When selecting specific wavelengths for such a combination, two criteria were used: (1) the overall change in the fluorescence signal and (2) the complexity of the shape of the titration as the analysis of the multi-phasic curves is more explicit than a uni-phasic curve analysis.
Path length for the excitation was 2 mm and for the emission was 5 mm (half of the cuvette dimensions). A continuous stirring was used during titrations. All measurements were performed at 25 °C. […]
Fluorescence intensity of the WT protein is stable over time, but in the case of the Y160W mutant a slight quenching of fluorescence is observed during titration, which typically lasted about 30 min as the time between each point in the titration was 1 min. Furthermore, adding phosphate during titration stabilises the intrinsic fluorescence of the protein. […] Thus corrected binding curves, F^cor([Pi]), are given by the following equation, in which Fn([Pi]) is the fluorescence intensity measured for the phosphate concentration [Pi], and n is the number of a given titration point in the particular titration:4 FncorPi=FnPi+∑m=1naPim
To check its influence on the intrinsic protein fluorescence, titrations with NaCl were performed, giving dependence F(I). […] Titration curves of the WT protein with phosphate were therefore measured up to 100 mM ionic strength of solution, which is enough to observe a plateau. […] Both F^obs([Pi]) and F(I) were corrected for the time dependent fluorescence quenching, according to Eq. (4), prior to the F^bind([Pi]) calculation. […]

SMILES: O=P(O)(O)O [Pi, Orthophosphate]
- Kd (50 mM Tris/HCl pH 7.6, read-out: Kd1 ± SD): 4.4 µM
- Kd (50 mM Tris/HCl pH 7.6, read-out: Kd2 ± SD): 84 µM
- Kd (50 mM Tris/HCl pH 7.6, read-out: Kd3 ± SD): 1770 µM
